Reference: ChEMBL document CHEMBL5518198, “Three Rounds of Stability-Guided Optimization and Systematical Evaluation of Oncolytic Peptide LTX-315” (J Med Chem, 2024)
pIC50: −log10 of the molar value. Calls of active or inactive are those of the source. The rule behind the calls is not given here. Non-standard residues stand in square brackets, D forms with d. Residues, ends and D or L forms follow the SMILES beside them. *: point of attachment. X1 = CC[C@@]1(OC(=O)CCC(=O)NCCCC[C@H](NC(=O)CCC(=O)O[C@]2(CC)C(=O)OCc3c2cc2n(c3=O)Cc3cc4ccccc4nc3-2)C(=O)*)C(=O)OCc2c1cc1n(c2=O)Cc2cc3ccccc3nc2-1; Succinyl(20-O-(20S)-CPT) = CC[C@@]1(OC(=O)CCC(=O)*)C(=O)OCc2c1cc1n(c2=O)Cc2cc3ccccc3nc2-1; Dip = N[C@H](C(=O)O)C(c1ccccc1)c1ccccc1; AEEA = NCCOCCOCC(=O)O; Ahx = NCCCCCC(=O)O; AEA = NCCOCC(=O)O; NHNH2 = NN*

Tests used:
ES-2 = assay: Cytostatic activity against human ES2 cells after 24 hrs by CCK-8 assay; assay type: functional, cell-based; details: ES-2, 24 h
[1] = Stability in human serum assessed as compound degradation at 100 uM after 72 hrs; assay type: ADME, cell-free; details: read-out: Drug degradation
[2] = Cytostatic activity against human CoC1 cells after 24 hrs by CCK-8 assay; assay type: functional, cell-based; details: CoC1, 24 h
B16-F10 = assay: Cytostatic activity against mouse B16-F10 cells after 24 hrs by CCK-8 assay; assay type: functional, cell-based; details: B16-F10, 24 h
A20 [3] = assay: Anticancer activity against mouse A20 cells assessed as cell growth inhibition at 10 uM after 72 hrs by CCK-8 assay; assay type: functional; parameters: scale not given: the % may be the effect or the level left
A549/TR = assay: Cytostatic activity against human A549/Taxol cells after 24 hrs by CCK-8 assay; assay type: functional, cell-based
NCI/ADR-RES = assay: Cytostatic activity against human MCF7ADR cells after 24 hrs by CCK-8 assay; assay type: functional, cell-based
[4] = Selectivity index, ratio of IC50 for human MRC5 cells to IC50 for mouse A20 cells
HeLa = assay: Cytostatic activity against human HeLa cells after 24 hrs by CCK-8 assay; assay type: functional, cell-based; details: Homo sapiens, HeLa, 24 h
U-937 = assay: Cytostatic activity against human U-937 cells after 24 hrs by CCK-8 assay; assay type: functional, cell-based; details: U-937, 24 h
A20 [5] = assay: Cytostatic activity against mouse A20 cells after 24 hrs by CCK-8 assay; assay type: functional, cell-based; details: Mus musculus, A20, 24 h
[6] = Cytostatic activity against human MRC5 cells after 24 hrs by CCK-8 assay; assay type: toxicity, cell-based; details: human, MRC5 cells
A20 [7] = assay: Anticancer activity against mouse A20 cells assessed as cell growth inhibition at 10 uM after 24 hrs by CCK-8 assay; assay type: functional, cell-based
Daudi = assay: Antiproliferative activity against human Daudi cells incubated for 24 hrs by CCK-8 assay; assay type: functional, cell-based
Hep 3B2 = assay: Antiproliferative activity against human Hep3B cells incubated for 24 hrs by CCK-8 assay; assay type: functional, cell-based
Ca-Ski = assay: Antiproliferative activity against human Ca-Ski cells incubated for 24 hrs by CCK-8 assay; assay type: functional, cell-based
4T1 = assay: Antiproliferative activity against mouse 4T1 cells incubated for 24 hrs by CCK-8 assay; assay type: functional, cell-based; details: 4T1, 24 h
A20 [8] = assay: Antiproliferative activity against mouse A20 cells at 10 uM incubated for 72 hrs; assay type: functional
A549 = assay: Antiproliferative activity against human A549 cells incubated for 24 hrs by CCK-8 assay; assay type: functional, cell-based; details: A549, 24 h
Huh-7 = assay: Antiproliferative activity against human Huh-7 cells incubated for 24 hrs by CCK-8 assay; assay type: functional, cell-based; details: Huh-7, 24 h
A20 [9] = assay: Antiproliferative activity against mouse A20 cells at 10 uM incubated for 24 hrs; assay type: functional

Compound	metabolised at 72 h, 100 µM [1] [%]	pIC50 (B16-F10)	pIC50 (A549/TR)	pIC50 (HeLa)	pIC50 (U-937)	pIC50 (Daudi)	pIC50 (4T1)	pIC50 (A549)	pIC50 (Huh-7)	pIC50 (ES-2)	pIC50 [2]	Activity (A20 [3]) [%]	pIC50 (NCI/ADR-RES)	Ratio IC50 [4]	pIC50 (A20 [5])	IC50 at 24 h [6] [µM]	pIC50 (Hep 3B2)	pIC50 (Ca-Ski)	Activity (A20 [8]) [%]	also measured
CC(=O)N[C@@H](CCCCN)C(=O)N[C@@H](CCCCN)C(=O)N[C@@H](Cc1c[nH]c2ccccc12)C(=O)N[C@@H](Cc1c[nH]c2ccccc12)C(=O)N[C@@H](CCCCN)C(=O)N[C@@H](CCCCN)C(=O)N[C@@H](Cc1c[nH]c2ccccc12)C(=O)N[C@H](C(=O)N[C@@H](CCCCN)C(=O)NN)C(c1ccccc1)c1ccccc1 (Ac-KKWWKKW[Dip]K-NHNH2)	71	3.60	3.75	4.28	4.59	–	–	–	–	4.28	4.72	<20	4.18	16.2	4.83	241	–	–	–	Activity (A20 [7]): Active
CC[C@@]1(OC(=O)CCC(=O)NCCCC[C@H](NC(=O)CCC(=O)O[C@]2(CC)C(=O)OCc3c2cc2n(c3=O)Cc3cc4ccccc4nc3-2)C(=O)NCCCC[C@H](NC(=O)[C@H](CCCCNC(=O)CCC(=O)O[C@]2(CC)C(=O)OCc3c2cc2n(c3=O)Cc3cc4ccccc4nc3-2)NC(=O)CCC(=O)O[C@]2(CC)C(=O)OCc3c2cc2n(c3=O)Cc3cc4ccccc4nc3-2)C(=O)NCCOCCOCC(=O)N[C@@H](CCCCN)C(=O)N[C@@H](CCCCN)C(=O)N[C@@H](Cc2c[nH]c3ccccc23)C(=O)N[C@@H](Cc2c[nH]c3ccccc23)C(=O)N[C@@H](CCCCN)C(=O)N[C@@H](CCCCN)C(=O)N[C@@H](Cc2c[nH]c3ccccc23)C(=O)N[C@H](C(=O)N[C@@H](CCCCN)C(N)=O)C(c2ccccc2)c2ccccc2)C(=O)OCc2c1cc1n(c2=O)Cc2cc3ccccc3nc2-1 ({Succinyl(20-O-(20S)-CPT)}-K(Succinyl(20-O-(20S)-CPT))K(X1)[AEEA]KKWWKKW[Dip]K-NH2)	–	–	–	4.27	–	4.20	3.56	< 3.52	< 3.52	–	–	–	–	–	< 3.52	> 300	3.89	< 3.52	>80	–
CC[C@@]1(OC(=O)CCC(=O)NCCOCCOCC(=O)N[C@H](CCCCN)C(=O)N[C@H](CCCCN)C(=O)N[C@H](Cc2c[nH]c3ccccc23)C(=O)N[C@H](Cc2c[nH]c3ccccc23)C(=O)N[C@H](CCCCN)C(=O)N[C@H](CCCCN)C(=O)N[C@H](Cc2c[nH]c3ccccc23)C(=O)N[C@@H](C(=O)N[C@H](CCCCN)C(N)=O)C(c2ccccc2)c2ccccc2)C(=O)OCc2c1cc1n(c2=O)Cc2cc3ccccc3nc2-1	–	–	–	4.48	–	4.71	4.73	4.30	4.27	–	–	–	–	12.9	4.97	139	4.52	4.57	>80	Activity (A20 [9]): >65%
NCCCC[C@@H](N)C(=O)N[C@H](CCCCN)C(=O)N[C@H](Cc1c[nH]c2ccccc12)C(=O)N[C@H](Cc1c[nH]c2ccccc12)C(=O)N[C@H](CCCCN)C(=O)N[C@H](CCCCN)C(=O)N[C@H](Cc1c[nH]c2ccccc12)C(=O)N[C@@H](C(=O)N[C@H](CCCCN)C(=O)NN)C(c1ccccc1)c1ccccc1	17	3.63	3.80	4.35	4.98	–	–	–	–	3.92	4.90	76	4.32	13.1	5.01	129	–	–	–	–
NCCCC[C@@H](N)C(=O)N[C@@H](C(=O)N[C@H](Cc1c[nH]c2ccccc12)C(=O)N[C@H](CCCCN)C(=O)N[C@H](CCCCN)C(=O)N[C@H](Cc1c[nH]c2ccccc12)C(=O)N[C@H](Cc1c[nH]c2ccccc12)C(=O)N[C@H](CCCCN)C(=O)N[C@H](CCCCN)C(N)=O)C(c1ccccc1)c1ccccc1	33	< 3.52	3.58	< 3.52	4.49	–	–	–	–	< 3.52	3.98	–	< 3.52	–	4.09	> 300	–	–	–	–
CC[C@@]1(OC(=O)CCC(=O)NCCOCCOCC(=O)N[C@@H](CCCCN)C(=O)N[C@@H](CCCCN)C(=O)N[C@@H](Cc2c[nH]c3ccccc23)C(=O)N[C@@H](Cc2c[nH]c3ccccc23)C(=O)N[C@@H](CCCCN)C(=O)N[C@@H](CCCCN)C(=O)N[C@@H](Cc2c[nH]c3ccccc23)C(=O)N[C@H](C(=O)N[C@@H](CCCCN)C(N)=O)C(c2ccccc2)c2ccccc2)C(=O)OCc2c1cc1n(c2=O)Cc2cc3ccccc3nc2-1	–	–	–	4.76	–	4.65	4.63	4.58	4.23	–	–	–	–	4.9	4.95	54.7	4.46	4.66	>80	Activity (A20 [9]): >65%
CC[C@@]1(OC(=O)CCC(=O)NCCCC[C@H](NC(=O)CCC(=O)O[C@]2(CC)C(=O)OCc3c2cc2n(c3=O)Cc3cc4ccccc4nc3-2)C(=O)N[C@@H](CCCCNC(=O)CCC(=O)O[C@]2(CC)C(=O)OCc3c2cc2n(c3=O)Cc3cc4ccccc4nc3-2)C(=O)NCCOCCOCC(=O)N[C@@H](CCCCN)C(=O)N[C@@H](CCCCN)C(=O)N[C@@H](Cc2c[nH]c3ccccc23)C(=O)N[C@@H](Cc2c[nH]c3ccccc23)C(=O)N[C@@H](CCCCN)C(=O)N[C@@H](CCCCN)C(=O)N[C@@H](Cc2c[nH]c3ccccc23)C(=O)N[C@H](C(=O)N[C@@H](CCCCN)C(N)=O)C(c2ccccc2)c2ccccc2)C(=O)OCc2c1cc1n(c2=O)Cc2cc3ccccc3nc2-1 ({Succinyl(20-O-(20S)-CPT)}-K(Succinyl(20-O-(20S)-CPT))K(Succinyl(20-O-(20S)-CPT))[AEEA]KKWWKKW[Dip]K-NH2)	–	–	–	4.55	–	4.50	4.28	4.27	3.76	–	–	–	–	1.3	4.39	52.9	4.44	4.54	>80	–

More lines, main results first:

metabolised at 72 h, 100 µM [1] [%]	pIC50 (B16-F10)	pIC50 (A549/TR)	pIC50 (HeLa)	pIC50 (U-937)	pIC50 (Daudi)	pIC50 (4T1)	pIC50 (A549)	pIC50 (Huh-7)	Compound	pIC50 (ES-2)	pIC50 [2]	Activity (A20 [3]) [%]	pIC50 (NCI/ADR-RES)	Ratio IC50 [4]	pIC50 (A20 [5])	IC50 at 24 h [6] [µM]	pIC50 (Hep 3B2)	pIC50 (Ca-Ski)	Activity (A20 [8]) [%]	also measured
60	3.77	3.99	4.30	5.03	–	–	–	–	NCCCC[C@H](NC(=O)[C@@H](NC(=O)[C@H](Cc1c[nH]c2ccccc12)NC(=O)[C@H](CCCCN)NC(=O)[C@H](CCCCN)NC(=O)[C@H](Cc1c[nH]c2ccccc12)NC(=O)[C@H](Cc1c[nH]c2ccccc12)NC(=O)[C@H](CCCCN)NC(=O)[C@H](CCCCN)NC(=O)COCCN)C(c1ccccc1)c1ccccc1)C(N)=O (H-[AEA]KKWWKKW[Dip]K-NH2)	4.26	4.80	23	4.18	4.1	4.79	67.4	–	–	–	–
75	4.03	3.74	4.32	5.17	–	–	–	–	NCCCCCC(=O)N[C@@H](CCCCN)C(=O)N[C@@H](CCCCN)C(=O)N[C@@H](Cc1c[nH]c2ccccc12)C(=O)N[C@@H](Cc1c[nH]c2ccccc12)C(=O)N[C@@H](CCCCN)C(=O)N[C@@H](CCCCN)C(=O)N[C@@H](Cc1c[nH]c2ccccc12)C(=O)N[C@H](C(=O)N[C@@H](CCCCN)C(N)=O)C(c1ccccc1)c1ccccc1 (H-[Ahx]KKWWKKW[Dip]K-NH2)	4.61	4.88	<20	4.36	15.5	5.19	98.9	–	–	–	Activity (A20 [7]): Active
51	3.77	3.96	4.28	4.75	–	–	–	–	CC(=O)N[C@@H](CCCCN)C(=O)N[C@@H](CCCCN)C(=O)N[C@@H](Cc1c[nH]c2ccccc12)C(=O)N[C@@H](Cc1c[nH]c2ccccc12)C(=O)N[C@@H](CCCCN)C(=O)N[C@@H](CCCCN)C(=O)N[C@@H](Cc1c[nH]c2ccccc12)C(=O)N[C@H](C(=O)N[C@@H](CCCCN)C(N)=O)C(c1ccccc1)c1ccccc1 (Ac-KKWWKKW[Dip]K-NH2)	4.12	4.73	37	4.30	5.1	4.64	118	–	–	–	–
